Data published in patent US20060100431A1, “Biologically active compounds” (Amura Therapeutics Limited, priority 2002, published 2006).

Key:
Format in all cases: biochemical
human cathepsin B = biological target: T1, human cathepsin B (Homo sapiens, UniProt P07858); assay: Cathepsin B peptidase activity assay (Ki); details: read-out: Ki, inhibitors of cathepsin B
T1 construct: purchased CN Biosciences
Procedure: Unless otherwise stated, all general chemicals and biochemicals were purchased from either the Sigma Chemical Company, Poole, Dorset, U.K or from Fisher Scientific UK, Loughborough, Leicestershire, U.K. Absorbance assays were carried out in flat-bottomed 96-well plates (Spectra; Greiner Bio-One Ltd., Stonehouse, Gloucestershire, U.K.) using a SpectraMax PLUS384 plate reader (Molecular Devices, Crawley, U.K.). […] Fluorescence assays were monitored using a SpectraMax Gemini fluorescence plate reader (Molecular Devices). For substrates employing either a 7-amino-4-methylcoumarin (AMC) or a 7-amino-4-trifluoromethylcoumarin (AFC) fluorophore, assays were monitored at an excitation wavelength of 365 nm and an emission wavelength of 450 nm and the fluorescence plate reader calibrated with AMC. For substrates employing a 3-amino-benzoyl (Abz) fluorophore, assays were monitored at an excitation wavelength of 310 nm and an emission wavelength of 445 nm; the fluorescence plate reader calibrated with 3-amino-benzamide (Fluka). Unless otherwise indicated, all the peptidase substrates were purchased from Bachem UK, St Helens, Merseyside, UK. […] Hydroxyethylpiperazine ethanesulfonate (HEPES), tris-hydroxylmethyl aminomethane (tris) base, bis-tris-propane and all the biological detergents (e.g. CHAPS, zwittergents, etc.) were purchased from CN Biosciences UK, Beeston, Nottinghamshire, U.K. Glycerol was purchased from Amersham Pharmacia Biotech, Little Chalfont, Buckinghamshire, U.K. Stock solutions of substrate or inhibitor were made up to 10 mM in 100% dimethylsulfoxide (DMSO) (Rathburns, Glasgow, U.K.) and diluted as appropriately required. In all cases the DMSO concentration in the assays was maintained at less than 1% (vol./vol.).
Enzyme was added as required to initiate the reaction and the activity, as judged by the change in fluorescence upon conversion of substrate to product, was monitored over time. All assays were carried out at 25±1° C.
Bovine cathepsin S, human cathepsin L, human cathepsin H and human cathepsin B were obtained from CN Biosciences. Recombinant human cathepsin S, human cathepsin K and human cathepsin X were obtained from Dr. Boris Turk (Josef Stefan Institute, Ljubljana, Slovenia). Unless otherwise stated, all peptidase activity assays were carried out in 10 mM bis-tris-propane (BTP), pH 6.5 containing 1 mM EDTA, 5 mM 2-mercaptoethanol and 1 mM CaCl2.
The apparent inhibition constant (Ki) for each compound was determined on the basis that inhibition was reversible and occurred by a pure-competitive mechanism. […] [formula]
[formula] Ki^app=Ki(1+[So]/KM^app) (4)
Curves were fitted by non-linear regression analysis (Prism) using a fixed value for the enzyme concentration.

Wild-type cruzipain = Wild-type cruzipain (Trypanosoma cruzi, UniProt P25779); assay: Trypanosoma cruzi cruzipain peptidase activity assay (Ki); details: read-out: Ki, inhibitors of cruzain and cruzipains
Wild-type cruzipain, sequence (P25779 whole entry): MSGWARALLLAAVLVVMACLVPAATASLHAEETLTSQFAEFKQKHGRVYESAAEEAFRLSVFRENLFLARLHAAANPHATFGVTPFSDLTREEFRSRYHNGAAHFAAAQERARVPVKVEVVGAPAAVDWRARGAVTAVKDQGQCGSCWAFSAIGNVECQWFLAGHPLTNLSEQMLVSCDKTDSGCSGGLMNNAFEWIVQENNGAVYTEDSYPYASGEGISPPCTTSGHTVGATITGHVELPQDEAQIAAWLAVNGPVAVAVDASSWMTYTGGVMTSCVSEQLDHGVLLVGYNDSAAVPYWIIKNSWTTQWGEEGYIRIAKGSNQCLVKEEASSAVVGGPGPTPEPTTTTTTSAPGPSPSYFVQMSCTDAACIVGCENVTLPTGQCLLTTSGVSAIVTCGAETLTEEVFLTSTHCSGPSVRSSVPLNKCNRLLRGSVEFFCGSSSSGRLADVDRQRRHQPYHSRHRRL
In short: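 Native cruzipain from T. cruzi Dm28 epimastigotes, 2.5 nM, in 100 mM sodium phosphate pH 6.75 with 1 mM EDTA and 10 mM L-cysteine, 25 °C, DMSO <1%. Rates taken from continuous fluorogenic substrate read; Ki by regression assuming reversible pure-competitive inhibition.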

human cathepsin L = biological target: T2, human cathepsin L (Homo sapiens, UniProt P07711); assay: Cathepsin L peptidase activity assay (Ki); details: read-out: Ki, inhibitors of cathepsin L
T2 construct: purchased CN Biosciences
T2 sequence (P07711 114-333): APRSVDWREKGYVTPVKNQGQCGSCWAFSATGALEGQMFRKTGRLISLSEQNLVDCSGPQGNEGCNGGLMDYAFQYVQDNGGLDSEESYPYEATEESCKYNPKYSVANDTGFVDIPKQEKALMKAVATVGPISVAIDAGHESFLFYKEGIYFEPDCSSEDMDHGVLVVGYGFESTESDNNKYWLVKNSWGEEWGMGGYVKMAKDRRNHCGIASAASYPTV
In short: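 Human cathepsin L at 1 nM with Ac-Phe-Arg-AMC at its KM^app (~20 μM) in 10 mM bis-tris-propane pH 6.5, 1 mM EDTA, 5 mM 2-mercaptoethanol, 1 mM CaCl2, DMSO <1%, 25±1° C. Reaction enzyme-initiated; AMC fluorescence (ex 365/em 450 nm) monitored over time.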

CPB2.8ΔCTE = biological target: T3, CPB2.8ΔCTE (Leishmania mexicana, UniProt P36400); assay: Leishmania mexicana cysteine protease B (CPB) peptidase activity assay (Ki); details: Ki, inhibitors of Leismania mexicana CPB protease
T3 construct: Wild-type recombinant CPB without the C-terminal extention (i.e. CPB2.8ΔCTE); Dr. Jeremy Mottram (Wellcome Centre for Molecular Parasitology, University of Glasgow)
T3 sequence (P36400 126-343, stated change not applied): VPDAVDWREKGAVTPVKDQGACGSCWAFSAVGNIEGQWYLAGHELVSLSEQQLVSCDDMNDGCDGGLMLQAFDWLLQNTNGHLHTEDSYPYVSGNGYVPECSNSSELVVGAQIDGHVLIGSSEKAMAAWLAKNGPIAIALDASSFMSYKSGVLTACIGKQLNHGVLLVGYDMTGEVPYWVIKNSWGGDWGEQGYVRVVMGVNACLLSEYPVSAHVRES
In short: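 Recombinant CPB2.8ΔCTE (0.25 nM) was assayed in 100 mM sodium acetate pH 5.5 with 1 mM EDTA, 200 mM NaCl and 10 mM DTT at 25 °C, DMSO <1%, enzyme added to start. Rates were taken from continuous fluorescence slopes; apparent Ki was fitted assuming reversible, pure-competitive inhibition.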

Row | SMILES | Ki (human cathepsin B) | Ki (Wild-type cruzipain) | Ki (human cathepsin L) | Ki (CPB2.8ΔCTE)
1 | CC(C)C[C@H](NC(=O)c1ccc(Oc2ccccc2)cc1)C(=O)N1CC[C@@H]2[C@H]1C(=O)CN2C(=O)c1ccccc1S(C)(=O)=O [Example 40, (3aR,6aS)-N-{(1S)-1-[4-(2-Methanesulfonyl-benzoyl)-6-oxo-hexahydro-pyrrolo[3,2-b]pyrrole-1-carbonyl]-3-methyl-butyl}-4-phenoxy-benzamide] | < 5 µM |  |  | 
2 | CC(C)C[C@H](NC(=O)c1ccc(Oc2ccccc2)cc1)C(=O)N1CC[C@@H]2[C@H]1C(=O)CN2C(=O)c1cccc(S(C)(=O)=O)c1 [Example 41, (3aR,6aS)-N-{(1S)-1-[4-(3-Methanesulfonyl-benzoyl)-6-oxo-hexahydro-pyrrolo[3,2-b]pyrrole-1-carbonyl]-3-methyl-butyl}-4-phenoxy-benzamide] | < 5 µM |  |  | 
3 | Cc1cccc(C(=O)N2CC(=O)[C@@H]3[C@H]2CCN3C(=O)[C@H](CC(C)C)NC(=O)c2ccc(N(C)C)cc2)c1 [Example 54, (3aR,6aS)-4-Dimethylamino-N-{(1S)-3-methyl-1-[4-(3-methyl-benzoyl)-6-oxo-hexahydro-pyrrolo[3,2-b]pyrrole-1-carbonyl]-butyl}-benzamide] | < 5 µM | < 5 µM |  | 
4 | CC(C)C[C@H](NC(=O)c1ccc([N+](=O)[O-])cc1)C(=O)N1CC[C@@H]2[C@H]1C(=O)CN2C(=O)c1cccc(S(C)(=O)=O)c1 [Example 58, (3aR,6aS)-N-{(1S)-1-[4-(3-Methanesulfonyl-benzoyl)-6-oxo-hexahydro-pyrrolo[3,2-b]pyrrole-1-carbonyl]-3-methyl-butyl}-4-nitro-benzamide] | < 5 µM | < 5 µM |  | 
5 | CC(C)C[C@H](NC(=O)c1cccc(CN)c1)C(=O)N1CC[C@@H]2[C@H]1C(=O)CN2C(=O)Nc1ccccc1 [Example 175, (3aS,6aR)-4-[(2S)-2-(3-Aminomethyl-benzoylamino)-4-methyl-pentanoyl]-3-oxo-hexahydro-pyrrolo[3,2-b]pyrrole-1-carboxylic acid phenylamide] |  | < 5 µM | < 5 µM | < 5 µM
6 | CC(C)C[C@H](NC(=O)c1cccc(CN)c1)C(=O)N1CC[C@@H]2[C@H]1C(=O)CN2C(=O)Cc1ccc(F)cc1 [Example 180, (3aR,6aS)-3-Aminomethyl-N-((1S)-1-{4-[2-(4-fluoro-phenyl)-acetyl]-6-oxo-hexahydro-pyrrolo[3,2-b]pyrrole-1-carbonyl}-3-methyl-butyl)-benzamide] |  | < 5 µM | < 5 µM | < 5 µM
7 | CC[C@H](NC(C)=O)C(=O)N1CC(=O)[C@@H]2[C@H]1CCN2C(=O)[C@H](CC(C)C)NC(=O)c1ccc(N(C)C)cc1 [Example 204, (3aR,6aS)-N-{(1S)-1-[4-((2S)-2-Acetylamino-butyryl)-6-oxo-hexahydro-pyrrolo[3,2-b]pyrrole-1-carbonyl]-3-methyl-butyl}-4-dimethylamino-benzamide] |  | < 5 µM | < 5 µM | < 5 µM
8 | CC(=O)N1CCC[C@H]1C(=O)N1CC(=O)[C@@H]2[C@H]1CCN2C(=O)[C@H](CC(C)C)NC(=O)c1ccc(N(C)C)cc1 [Example 216, (3aR,6aS)-N-{(1S)-1-[4-((2S)-1-Acetyl-pyrrolidine-2-carbonyl)-6-oxo-hexahydro-pyrrolo[3,2-b]pyrrole-1-carbonyl]-3-methyl-butyl}-4-dimethylamino-benzamide] |  | < 5 µM | < 5 µM | < 5 µM
9 | CC(C)C[C@H](NC(=O)c1cccc(CN)c1)C(=O)N1CC[C@@H]2[C@H]1C(=O)CN2C(=O)[C@@H](N)CC(C)C [Example 246, (3aR,6aS)-3-Aminomethyl-N-{(1S)-1-[4-((2S)-2-amino-4-methyl-pentanoyl)-6-oxo-hexahydro-pyrrolo[3,2-b]pyrrole-1-carbonyl)-3-methyl-butyl}-benzamide] |  | < 5 µM | < 5 µM | < 5 µM
10 | O=C(N[C@@H](CSCc1ccccc1)C(=O)N1CC[C@@H]2[C@H]1C(=O)CN2C(=O)c1ccccc1)c1cc2ccccc2s1 [Example 252, (3aR,6aS)-Benzo[b]thiophene-2-carboxylic acid [(1R)-2-(4-benzoyl-6-oxo-hexahydro-pyrrolo[3,2-b]pyrrol-1-yl)-1-benzylsulfanylmethyl-2-oxo-ethyl]-amide] | < 5 µM |  |  | 
11 | O=C(N[C@@H](CSCc1ccccc1)C(=O)N1CC[C@@H]2[C@H]1C(=O)CN2C(=O)c1ccccc1)c1csc2ccccc12 [Example 253, (3aR,6aS)-Benzo[b]thiophene-3-carboxylic acid [(1R)-2-(4-benzoyl-6-oxo-hexahydro-pyrrolo[3,2-b]pyrrole-1-yl)-1-benzylsulfanylmethyl-2-oxo-ethyl]-amide] | < 5 µM |  |  | 
12 | O=C(N[C@@H](CSCc1ccccc1)C(=O)N1CC[C@@H]2[C@H]1C(=O)CN2C(=O)c1cccc([N+](=O)[O-])c1)c1ccsc1 [Example 264, (3aR,6aS)-Thiophene-3-carboxylic acid {(1R)-1-benzylsulfanylmethyl-2-[4-(3-nitro-benzoyl)-6-oxo-hexahydro-pyrrolo[3,2-b]pyrrole-1-yl]-2-oxo-ethyl}-amide] | < 5 µM |  |  | 
13 | O=C(N[C@@H](CSCc1ccccc1)C(=O)N1CC[C@@H]2[C@H]1C(=O)CN2C(=O)C12CC3CC(CC1C3)C2)c1ccsc1 [Example 266, (3aR,6aS)-Thiophene-3-carboxylic acid {(1R)-1-benzylsulfanylmethyl-2-[4-(hexahydro-2,5-methano-pentalene-3a-carbonyl)-6-oxo-hexahydro-pyrrolo[3,2-b]pyrrole-1-yl]-2-oxo-ethyl}-amide] | < 5 µM |  |  | 
14 | O=C(N[C@@H](CSCc1ccccc1)C(=O)N1CC[C@@H]2[C@H]1C(=O)CN2C(=O)c1ccc(O)cc1)c1ccsc1 [Example 267, (3aR,6aS)-Thiophene-3-carboxylic acid {(1R)-1-benzylsulfanylmethyl-2-[4-(4-hydroxy-benzoyl)-6-oxo-hexahydro-pyrrolo[3,2-b]pyrrol-1-yl]-2-oxo-ethyl}-amide] | < 5 µM |  |  | 
15 | CS(=O)(=O)c1ccccc1C(=O)N1CC(=O)[C@@H]2[C@H]1CCN2C(=O)[C@H](CC1CCCCC1)NC(=O)C(c1ccccc1)c1ccccc1 [Example 279, (3aR,6aS)-N-{(1S)-1-Cyclohexylmethyl-2-[4-(2-methanesulfonyl-benzoyl)-6-oxo-hexahydro-pyrrolo[3,2-b]pyrrole-1-yl]-2-oxo-ethyl}-2,2-diphenyl-acetamide] | < 5 µM |  |  | 
16 | CC(=O)N[C@@H](CC(C)C)C(=O)N1CC(=O)[C@@H]2[C@H]1CCN2C(=O)[C@H](CC1CCCCC1)NC(=O)c1ccco1 [Example 295, (3aR,6aS)-Furan-2-carboxylic acid {(1S)-2-[4-((2S)-2-acetylamino-4-methyl-pentanoyl)-6-oxo-hexahydro-pyrrolo[3,2-b]pyrrole-1-yl]-1-cyclohexylmethyl-2-oxo-ethyl}-amide] |  | < 5 µM | < 5 µM | < 5 µM
17 | O=C(N[C@@H](Cc1ccc(O)cc1)C(=O)N1CC[C@@H]2[C@H]1C(=O)CN2C(=O)c1ccccc1)c1nccc2ccccc12 [Example 299, (3aR,6aS)-Isoquinoline-1-carboxylic acid [(1S)-2-(4-benzoyl-6-oxo-hexahydro-pyrrolo[3,2-b]pyrrol-1-yl)-1-(4-hydroxy-benzyl)-2-oxo-ethyl]-amide] | < 5 µM | < 5 µM |  | 
